Assay results: patent US20180153995A1, “USE OF ANTIMICROBIAL POLYMERS FOR RE-SENSITIZATION OF MICROORGANISMS UPON EMERGENCE OF RESISTANCE TO ANTI-MICROBIAL AGENTS” (Technion Research & Development Foundation Limited, priority 2008, published 2018)
≈ marks a conversion by molar mass, not a printed value. Read-outs that look alike come from different tables or passages of the source. Square brackets hold non-standard residues; d marks the D form. Peptide text beside a SMILES is read from it. 12Ado = NCCCCCCCCCCCC(=O)O

What was measured:
MRSA 15903 [1] = experiment: microbe, parasite or virus in culture; type: cell-based, Staphylococcus aureus; conditions: for MIC, ¼ + MIC OAK: with C12K(KNC10K)3NH2 (SEQ ID NO: 10) at ¼ of its MIC; for MIC, ½ + MIC OAK: with C12K(KNC10K)3NH2 (SEQ ID NO: 10) at ½ of its MIC; for MIC, ⅓ + MIC OAK: with C12K(KNC10K)3NH2 (SEQ ID NO: 10) at ⅓ of its MIC
Method: (§1) The fractionary inhibitory (FIC) concentration index for combinations of two antimicrobial agents was calculated as follows: FIC index=FICA+FICB=A/MICA+B/MICB where A and B are the MIC values of agent A and agent B in the combination, MICA and MICB are the MICs of agent A and agent B alone, and FICA and FICB are the FICs of agent A and agent B.
(§2) The FIC indexes were interpreted as follows: less than 0.5 indicates a clear re-sensitizing effect; from 0.5 to 4 indicates a marginal or null re-sensitizing effect; and over 4 indicates antagonism.
Experimental data for FIG. 4 were obtained as follows.

MRSA 15852 = type: cell-based, Staphylococcus aureus; conditions: 15852
Method: as §1, §2

ATCC 25923 = experiment: microbe, parasite or virus in culture; type: cell-based, Staphylococcus aureus; conditions: ATCC 25923
Method: (§3) MICs were determined by microdilution susceptibility testing in 96-well plates (by Nunc) using inocula of 10^5 bacteria per ml. Cell populations were evaluated by optical density measurements at 620 nm and were calibrated against a set of standards. Hundred (100) μl of a bacterial suspension were added to 100 μl of culture medium (control) or to 100 μl of culture medium containing various polymer concentrations in 2-fold serial dilutions. Inhibition of proliferation was determined by optical density measurements at 620 nm after an incubation period of 24 hours at 37° C.

ATCC 29213 = experiment: microbe, parasite or virus in culture; type: cell-based, Staphylococcus aureus; conditions: ATCC 29213
Method: as §3, §1, §2

MRSA 15918 = experiment: microbe, parasite or virus in culture; type: cell-based, Staphylococcus aureus; conditions: 15918
Method: as §3, §1, §2

MRSA 15903 [2] = experiment: Sub-MIC time-kill curves (CFU counts); type: cell-based, Staphylococcus aureus; conditions: sub-MIC time-kill, single agent
Method: At the specified time points of incubation (37° C. under shaking), cultures were subjected to serial 10-fold dilutions (up to 10^6) by adding 50 μl of sample to 450 μl saline (0.85% NaCl). Cell counts were determined using the drop plate method (three 20-μl drops onto LB-agar plates). Plates were incubated at 37° C. and colonies were counted for the calculation after incubation for 24 hours.

E. coli AG100 = experiment: Antibiotic MIC with or without sub-MIC polymer (Tables 20, 21); type: cell-based, Escherichia coli
E. coli AG100/ks = experiment: as above; type: cell-based, Escherichia coli
E. coli D21 = experiment: as above; type: cell-based, Escherichia coli
E. coli G11a1 = experiment: as above; type: cell-based, Escherichia coli
Method: as §3

[3] = Staphylococcus aureus, MRSA, 24 h, MRSA 15903, antibiotic alone (Table 22), read-out: MIC, Alone

## NCCCCCCCCCCCC(=O)N[C@@H](CCCCN)C(=O)NCCCCCCCCCCCC(=O)N[C@@H](CCCCN)C(=O)N[C@@H](CCCCN)C(=O)NCCCCCCCCCCCC(=O)N[C@@H](CCCCN)C(N)=O [NC12(KNC12K)2NH2] (H-[12Ado]K[12Ado]KK[12Ado]K-NH2)
MRSA 15903 [1]; 15903
  MIC: 6.2 µM
MRSA 15903 [1]; MRSA 15903, polymer + sub-MIC oxacillin
  improvement (decrease) in the polymer's MIC in presence of oxacillin: twofold
MRSA 15903 [1]; MRSA 15903, polymer alone
  MIC of polymer: 6.25 µM
MRSA 15903 [1]; MRSA 15903, with oxacillin
  optimal re-sensitization polymer concentration: 2.1 µM
MRSA 15852
  MIC: 3.1 µM
ATCC 25923
  MIC: 3.1 µM (≈ 3.48 µg/mL)
ATCC 29213
  MIC: 3.1 µM
MRSA 15918
  MIC: 6.2 µM
MRSA 15903 [2]
  bactericidal activity, agent alone: no bactericidal activity

## CC1(C)S[C@@H]2[C@H](NC(=O)[C@H](N)c3ccccc3)C(=O)N2[C@H]1C(=O)O [ampicillin]
E. coli AG100; antibiotic alone (Table 20)
  Antibiotic MIC, None: 4 µg/mL
E. coli AG100; antibiotic alone (Table 21)
  Antibiotic MIC, None: 4 µg/mL
E. coli AG100/ks; antibiotic alone (Table 20)
  Antibiotic MIC, None: >512 µg/mL
E. coli AG100/ks; antibiotic alone (Table 21)
  Antibiotic MIC, None: >512 µg/mL
E. coli AG100/ks; polymer at ¼ of its MIC
  Antibiotic MIC in presence of C12K(NC8K)5NH2 (SEQ ID NO: 3), +¼ MIC: >512 µg/mL
  Antibiotic MIC in presence of C12K(NC8K)7NH2 (SEQ ID NO: 4), +¼ MIC: >512 µg/mL
E. coli AG100/ks; polymer at ½ of its MIC
  Antibiotic MIC in presence of C12K(NC8K)5NH2 (SEQ ID NO: 3), +½ MIC: >512 µg/mL
  Antibiotic MIC in presence of C12K(NC8K)7NH2 (SEQ ID NO: 4), +½ MIC: >512 µg/mL
E. coli AG100/ks; polymer at ⅓ of its MIC
  Antibiotic MIC in presence of C12K(NC8K)5NH2 (SEQ ID NO: 3), +⅓ MIC: >512 µg/mL
  Antibiotic MIC in presence of C12K(NC8K)7NH2 (SEQ ID NO: 4), +⅓ MIC: >512 µg/mL
E. coli D21; antibiotic alone (Table 20)
  Antibiotic MIC, None: 64 µg/mL
E. coli D21; antibiotic alone (Table 21)
  Antibiotic MIC, None: 64 µg/mL
E. coli D21; polymer at ¼ of its MIC
  Antibiotic MIC in presence of C12K(NC8K)5NH2 (SEQ ID NO: 3), +¼ MIC: 64 µg/mL
  Antibiotic MIC in presence of C12K(NC8K)7NH2 (SEQ ID NO: 4), +¼ MIC: 64 µg/mL
E. coli D21; polymer at ½ of its MIC
  Antibiotic MIC in presence of C12K(NC8K)5NH2 (SEQ ID NO: 3), +½ MIC: 32 µg/mL
  Antibiotic MIC in presence of C12K(NC8K)7NH2 (SEQ ID NO: 4), +½ MIC: 32 µg/mL
E. coli D21; polymer at ⅓ of its MIC
  Antibiotic MIC in presence of C12K(NC8K)5NH2 (SEQ ID NO: 3), +⅓ MIC: 64 µg/mL
  Antibiotic MIC in presence of C12K(NC8K)7NH2 (SEQ ID NO: 4), +⅓ MIC: 64 µg/mL
E. coli G11a1; antibiotic alone (Table 20)
  Antibiotic MIC, None: 64 µg/mL
E. coli G11a1; antibiotic alone (Table 21)
  Antibiotic MIC, None: 64 µg/mL
E. coli G11a1; polymer at ¼ of its MIC
  Antibiotic MIC in presence of C12K(NC8K)5NH2 (SEQ ID NO: 3), +¼ MIC: 64 µg/mL
  Antibiotic MIC in presence of C12K(NC8K)7NH2 (SEQ ID NO: 4), +¼ MIC: 64 µg/mL
E. coli G11a1; polymer at ½ of its MIC
  Antibiotic MIC in presence of C12K(NC8K)5NH2 (SEQ ID NO: 3), +½ MIC: 32 µg/mL
  Antibiotic MIC in presence of C12K(NC8K)7NH2 (SEQ ID NO: 4), +½ MIC: 32 µg/mL
E. coli G11a1; polymer at ⅓ of its MIC
  Antibiotic MIC in presence of C12K(NC8K)5NH2 (SEQ ID NO: 3), +⅓ MIC: 64 µg/mL
  Antibiotic MIC in presence of C12K(NC8K)7NH2 (SEQ ID NO: 4), +⅓ MIC: 64 µg/mL

## Cc1nnc(SCC2=C(C(=O)O)N3C(=O)[C@@H](NC(=O)Cn4cnnn4)[C@H]3SC2)s1 [cefazolin]
MRSA 15903 [1]; MRSA 15903
  MIC, ¼ + MIC OAK: 16 µg/mL
  MIC, ½ + MIC OAK: 2 to 4 µg/mL
  MIC, ⅓ + MIC OAK: 8 to 16 µg/mL
MRSA 15903 [1]; [3]
  MIC: 16 µg/mL

## CCN1CCN(C(=O)N[C@@H](C(=O)N[C@@H]2C(=O)N3C(C(=O)O)=C(CSc4nnnn4C)CS[C@H]23)c2ccc(O)cc2)C(=O)C1=O [cefoperazone]
MRSA 15903 [1]; MRSA 15903
  MIC, ¼ + MIC OAK: 16 µg/mL
  MIC, ½ + MIC OAK: 4 µg/mL
  MIC, ⅓ + MIC OAK: 8 to 16 µg/mL
MRSA 15903 [1]; [3]
  MIC: 16 µg/mL

## CO/N=C(\C(=O)N[C@@H]1C(=O)N2C(C(=O)O)=C(COC(C)=O)CS[C@H]12)c1csc(N)n1 [cefotaxime]
MRSA 15903 [1]; MRSA 15903
  MIC, ¼ + MIC OAK: 32 µg/mL
  MIC, ½ + MIC OAK: 4 µg/mL
  MIC, ⅓ + MIC OAK: 16 µg/mL
MRSA 15903 [1]; [3]
  MIC: 32 µg/mL

## CN[C@H](CC(C)C)C(=O)N[C@H]1C(=O)N[C@@H](CC(N)=O)C(=O)N[C@H]2C(=O)N[C@H]3C(=O)N[C@H](C(=O)N[C@H](C(=O)O)c4cc(O)cc(O)c4-c4cc3ccc4O)[C@H](O)c3ccc(c(Cl)c3)Oc3cc2cc(c3O[C@@H]2O[C@H](CO)[C@@H](O)[C@H](O)[C@H]2O[C@H]2C[C@](C)(N)[C@H](O)[C@H](C)O2)Oc2ccc(cc2Cl)[C@H]1O [vancomycin]
MRSA 15903 [1]; MRSA 15903
  MIC, ¼ + MIC OAK: 1 µg/mL
  MIC, ½ + MIC OAK: 1 µg/mL
  MIC, ⅓ + MIC OAK: 1 µg/mL
MRSA 15903 [1]; Staphylococcus aureus, MRSA, 24 h, read-out: MIC, Alone
  MIC: 1 µg/mL
